The term IC50 denotes the concentration that gives 50% inhibition.

≈ marks a conversion by molar mass, not a printed value. Calls of active or inactive are those of the source. The calls are words filed in the database; no cut-off is given here.

The record followed here is ChEMBL document CHEMBL1142892, “Synthesis and antitumor activity of indolylpyrimidines: marine natural product meridianin D analogues” (Bioorg Med Chem, 2007).

What all share (assay type): functional, cell-based
One assay deals with HepG2. The assay can be described thus: Cytotoxicity against human HEPG2 cells after 48 hrs by SRB assay. On the technique in general: Sulforhodamine B stains cellular protein and so reports cell mass.
Another assay deals with U-251. The assay can be described thus: Cytotoxicity against human U251 cells after 48 hrs by SRB assay.
A further assay deals with HeLa. Nature of the assay: Cytotoxicity against human HeLa cells after 48 hrs by SRB assay.
The test system of the next assay is MCF7. The assay can be described thus: Cytotoxicity against human MCF7 after 48 hrs cells by SRB assay.

`Nc1nccc(-c2c[nH]c3ccccc23)n1`: the outcome with HepG2 and with U-251 was inactive.
Turning to `N#Cc1cnc(N)nc1-c1c[nH]c2ccccc12`, the result in the assay with HepG2 and in the assay on U-251 was inactive. Further, the half-maximal inhibitory concentration (IC50) was determined as 2.65 µg/mL (≈ 11.3 µM) with HeLa and 0.85 µg/mL (≈ 3.61 µM) with MCF7.
For the molecule `N/N=C(\N)c1cnc(N)nc1-c1c[nH]c2ccccc12`, the outcome with HepG2 and with U-251 was inactive. In the assay with MCF7, this molecule registered an IC50 of 0.25 µg/mL (≈ 0.935 µM).
`Nc1ncc(C(=O)O)c(-c2c[nH]c3ccccc23)n1`: the outcome with HepG2 and in the assay with U-251 was inactive. Further, in the assay with MCF7, it took 0.75 µg/mL (≈ 2.95 µM) to reach half-maximal inhibition (IC50).
